Test results from patent US4643999A, “2-substituted imidazo[1,2-c]pyrimidines having anxiolytic properties” (priority 1983, dated 1987).

Key:
benzodiazepine receptor = experiment: affinity for the benzodiazepine receptor, [3H] flunitrazepam radio receptor binding (Squires and Braestrup, modified); conditions: inhibition by 50% of specific binding of 0.6 nM [3H] flunitrazepam to rat forebrain membrane preparations
Procedure: The affinity of the compounds for the benzodiazepine receptor was assessed using the radioligand [^3 H] flunitrazepam and modifications of the original radio receptor binding method of Squires and Braestrup [Nature, Vol. 266 (1977) p. 732]. The values given in Table II are nanomolar concentrations of test drug which inhibited the specific binding of 0.6 nM [^3 H] flunitrazepam to rat forebrain membrane preparations by 50% (IC50 nM).

[1] = Geller conflict, screening for anxiolytic activity (conflict method of Geller et al, modified); type: in vivo; conditions: po; read-out: GELLER CONFLICT MED (minimum effective dose at which there was an observed increase in shocks above control)
Procedure: Screening for anxiolytic activity was carried out by modifications of the conflict method of Geller et al [Psychopharmacologia, (1960), Vol. I, p. 482]. The values given in Table II are the minimum effective doses at which there was an observed increase in shocks above control (MED mg/kg po).

IC50 (benzodiazepine receptor) | SMILES | minimal effective dose [1]
1000 nM | CCCn1c(OC)cc2nc(C(=O)c3ccccc3)cn2c1=O [Example 3, 2-benzoyl-7-methoxy-6-propyl-imidazo[1,2-c]pyrimidin-5-one] | 10 mg/kg
890 nM | CCOc1nc(OC)cc2nc(C(=O)c3ccccc3)cn12 [Example 11, (5-ethoxy-7-methoxy-imidazo[1,2-c]pyrimidin-2-yl) phenylmethanone] | –
520 nM | COc1cc2nc(C(=O)c3ccccc3)cn2c(C)n1 [Example 4, (7-methoxy-5-methyl-imidazo[1,2-c]pyrimidin-2-yl)-phenylmethanone] | 50 mg/kg
2000 nM | CCn1c(OC)cc2nc(C(=O)c3ccccc3)cn2c1=O [Example 2, 2-benzoyl-6-ethyl-7-methoxyimidazo[1,2-c]pyrimidin-5-one] | 2 mg/kg
500 nM | C=CCn1c(OC)cc2nc(C(=O)c3ccccc3)cn2c1=O [Example 9, 6-allyl-2-benzoyl-7-methoxy-imidazo[1,2-c]pyrimidin-5-one] | 5 mg/kg
126 nM | COc1cc2nc(C(=O)c3ccccc3)cn2c(SC)n1 [Example 12, {7-methoxy-5-methylthio-imidazo[1,2-c]pyrimidin-2-yl}phenylmethanone] | 5 mg/kg
18 nM | CSc1cc2nc(C(=O)c3ccccc3)cn2c(SC)n1 [Example 13, {5,7-bis(methylthio)-imidazo[1,2-c]pyrimidin-2-yl}phenylmethanone] | 50 mg/kg
1000 nM | COc1cc2nc(C(=O)c3ccccc3)cn2c(OC)n1 [Example 10, (5,7-dimethoxy-imidazo[1,2-c]pyrimidin-2-yl) phenylmethanone] | 10 mg/kg
215 nM | CCc1nc(OC)cc2nc(C(=O)c3ccccc3)cn12 [Example 5, (5-ethyl-7-methoxy-imidazo[1,2-c]pyrimidin-2-yl)phenylmethanone] | 10 mg/kg
120 nM | C=CCn1c(SC)cc2nc(C(=O)c3ccccc3)cn2c1=O [Example 15, 6-allyl-2-benzoyl-7-methylthio-imidazo[1,2-c]pyrimidin-5-one] | 50 mg/kg
140 nM | CCn1c(SC)cc2nc(C(=O)c3ccccc3)cn2c1=O [Example 14, 2-benzoyl-6-ethyl-7-methylthio-imidazo[1,2-c]pyrimidin-5-one] | 5 mg/kg
